The subject of one series is VVC. The conditions noted are these: oral fluconazole, share of VVC cases, Diflucan label (May 2011); cited from earlier work.
Series [1] is described as follows: Plasma, vaginal secretion and vaginal tissue exposure after oral administration in mice. The format is in vivo. The conditions noted are these: for AUC(0-t): po. Here is the method: Female CD-1 mice (n=3/time point/dose group) were given SCY-078 via oral gavage for either one, two, or eight total doses ranging from 10 to 80 mg/kg, consisting of QD (once per day) and BID (twice per day) dose regimens, with and without loading doses, as follows: • QD (Day 1): 10, 20, 40, 80 mg/kg • BID (Day 1): 10/5, 20/10, 40/20, 80/40 mg/kg • BID repeat dose (Days 1-4): 10/5, 20/10 40/20, 80/40 mg/kg on Day 1; 5, […] mg/kg BID on Days 2 to 4
Blood, vulvo-vaginal tissue and vaginal secretions were collected pre-dose, and at 1, 2, 4, 6, 8, 12, 18 and 24 hours post-dose, following the final dose administered per group. Samples were then processed, extracted via protein precipitation and analyzed for SCY-078 via LC MS/MS.

A further series in a line: clinical. The conditions noted are these: female, human, in vivo, po, 300 mg. The series is classed as in vivo, human. Here is the method:
A Phase 2 study was conducted to evaluate the safety, efficacy, tolerability, and pharmacokinetics of five dose regimens of oral SCY-078 (administered as the citrate salt) compared to oral fluconazole in adult, female patients with moderate-to-severe acute VVC (defined as having a signs and symptoms (S&S) score of 7 or greater). A total of 186 intent-to-treat (ITT) patients were randomized into six different treatment arms as follows: five different dosing regimens of oral SCY-078 and one oral fluconazole treatment arm. The modified intent-to-treat (mITT) population was used for efficacy analysis and included 153 patients with culture-confirmed Candida spp. vaginal infection (positive microscopic examination of vaginal secretions showing yeast, vaginal pH≤4.5) at baseline. The doses of SCY-078 tested ranged from 600 mg to 1800 mg total dose administered over the duration of treatment, and the durations of treatment were 1 or 3 days:
The primary efficacy endpoint was clinical cure, which according to current FDA guidance is defined as complete resolution (score=0) of all signs and symptoms at the Day 10 Test-of-Cure visit without the need of additional antifungal therapy. Secondary endpoints included mycological eradication (negative culture) and a composite endpoint including both clinical cure and mycological eradication. Response was also evaluated based on the percent of patients achieving a noticeable improvement in their signs and symptoms, either by achieving an S&S score of 0 or 1 or an absolute change (reduction) in mean composite S&S score from baseline. An S&S score is based on a patient's reported symptoms (burning, itching, and irritation) and investigator-assessed signs (swelling, redness, and excoriations); each sign and symptom can be absent, mild, moderate, or severe, with a corresponding score from 0 to 3; the total composite scale is 0 to 18 points. Response was further evaluated by assessing the number of patients who received rescue antifungal therapy. Patients were assessed at the Day 10 Test-of-Cure visit and also at a Day 25 Follow-Up visit. The study was not designed to achieve statistically significant differences in any of the evaluated endpoints.

Bounds are passed on as bounds.

Regarding `OC(Cn1cncn1)(Cn1cncn1)c1ccc(F)cc1F` [Fluconazole, reference compound], the “therapeutic cure (complete resolution of signs and symptoms, negative KOH examination and negative culture)” value in the series with VVC is reported as “approximately half”.

By Cmax is commonly meant the maximum level reached in the sampled fluid or tissue. With `CC(C)[C@@H](C)[C@@]1(C)CC[C@]2(C)[C@H]3CC[C@@H]4[C@@]5(COC[C@]4(C)[C@@H](OC[C@](C)(N)C(C)(C)C)[C@H](n4ncnc4-c4ccncc4)C5)C3=CC[C@@]2(C)[C@@H]1C(=O)O` [SCY-078], the AUC(0-t) in series [1] (female, CD-1, mouse, plasma, 10 mg/kg, oral gavage, QD 10 mg/kg (Day 1), read-out: AUC0-24 Plasma) was 8330 ng·h/mL; in series [1] (female, CD-1, mouse, plasma, 20 mg/kg, oral gavage, QD 20 mg/kg (Day 1), read-out: AUC0-24 Plasma), 19700 ng·h/mL; in series [1] (female, CD-1, mouse, plasma, 40 mg/kg, oral gavage, QD 40 mg/kg (Day 1), read-out: AUC0-24 Plasma) it was 42300 ng·h/mL; in series [1] (female, CD-1, mouse, plasma, 80 mg/kg, oral gavage, QD 80 mg/kg (Day 1), read-out: AUC0-24 Plasma) it was 75500 ng·h/mL; in series [1] (female, CD-1, mouse, plasma, BID regimen, 10/5-80/40 mg/kg, read-out: AUC0-24 in plasma, range over doses), 7470 to 101000 ng·h/mL; in series [1] (female, CD-1, mouse, plasma, BID repeat dose regimen (Days 1-4), read-out: AUC0-24 in plasma, range over doses), 7470 to 101000 ng·h/mL. For the same compound, the AUC(0-t) in series [1] (female, CD-1, mouse, plasma, QD regimen, 10-80 mg/kg, read-out: AUC0-24 in plasma, range over doses) is 8330 to 75500 ng·h/mL; in series [1] (female, CD-1, mouse, plasma, oral gavage, BID 10/5 mg/kg (Day 1), read-out: AUC0-24 Plasma), 7470 ng·h/mL; in series [1] (female, CD-1, mouse, plasma, oral gavage, BID 20/10 mg/kg (Day 1), read-out: AUC0-24 Plasma), 16600 ng·h/mL; in series [1] (female, CD-1, mouse, plasma, oral gavage, BID 40/20 mg/kg (Day 1), read-out: AUC0-24 Plasma) it was 46500 ng·h/mL; in series [1] (female, CD-1, mouse, plasma, oral gavage, BID 80/40 mg/kg (Day 1), read-out: AUC0-24 Plasma), 101000 ng·h/mL; in series [1] (female, CD-1, mouse, plasma, oral gavage, BID repeat-dose 10/5 mg/kg (Days 1-4), read-out: AUC0-24 Plasma), 5120 ng·h/mL. Further, the AUC(0-t) came to 14600 ng·h/mL in series [1] (female, CD-1, mouse, plasma, oral gavage, BID repeat-dose 20/10 mg/kg (Days 1-4), read-out: AUC0-24 Plasma); 53000 ng·h/mL in series [1] (female, CD-1, mouse, plasma, oral gavage, BID repeat-dose 40/20 mg/kg (Days 1-4), read-out: AUC0-24 Plasma); 143000 ng·h/mL in series [1] (female, CD-1, mouse, plasma, oral gavage, BID repeat-dose 80/40 mg/kg (Days 1-4), read-out: AUC0-24 Plasma); 1320 ng·h/mL in series [1] (female, CD-1, mouse, vaginal secretion, 10 mg/kg, oral gavage, QD 10 mg/kg (Day 1), read-out: AUC0-24 Vaginal Secretion); 1870 ng·h/mL in series [1] (female, CD-1, mouse, vaginal secretion, 20 mg/kg, oral gavage, QD 20 mg/kg (Day 1), read-out: AUC0-24 Vaginal Secretion); 4410 ng·h/mL in series [1] (female, CD-1, mouse, vaginal secretion, 40 mg/kg, oral gavage, QD 40 mg/kg (Day 1), read-out: AUC0-24 Vaginal Secretion). The AUC(0-t) came to 12300 ng·h/mL in series [1] (female, CD-1, mouse, vaginal secretion, 80 mg/kg, oral gavage, QD 80 mg/kg (Day 1), read-out: AUC0-24 Vaginal Secretion); 1550 ng·h/mL in series [1] (female, CD-1, mouse, vaginal secretion, oral gavage, BID 10/5 mg/kg (Day 1), read-out: AUC0-24 Vaginal Secretion); 4210 ng·h/mL in series [1] (female, CD-1, mouse, vaginal secretion, oral gavage, BID 20/10 mg/kg (Day 1), read-out: AUC0-24 Vaginal Secretion); 10600 ng·h/mL in series [1] (female, CD-1, mouse, vaginal secretion, oral gavage, BID 40/20 mg/kg (Day 1), read-out: AUC0-24 Vaginal Secretion); 17800 ng·h/mL in series [1] (female, CD-1, mouse, vaginal secretion, oral gavage, BID 80/40 mg/kg (Day 1), read-out: AUC0-24 Vaginal Secretion); 4320 ng·h/mL in series [1] (female, CD-1, mouse, vaginal secretion, oral gavage, BID repeat-dose 10/5 mg/kg (Days 1-4), read-out: AUC0-24 Vaginal Secretion). The AUC(0-t) in series [1] (female, CD-1, mouse, vaginal secretion, oral gavage, BID repeat-dose 20/10 mg/kg (Days 1-4), read-out: AUC0-24 Vaginal Secretion) is 8630 ng·h/mL; in series [1] (female, CD-1, mouse, vaginal secretion, oral gavage, BID repeat-dose 40/20 mg/kg (Days 1-4), read-out: AUC0-24 Vaginal Secretion) it was 38800 ng·h/mL; in series [1] (female, CD-1, mouse, vaginal secretion, oral gavage, BID repeat-dose 80/40 mg/kg (Days 1-4), read-out: AUC0-24 Vaginal Secretion), 120000 ng·h/mL; in series [1] (female, CD-1, mouse, vaginal secretions, BID regimen, 10/5-80/40 mg/kg, read-out: AUC0-24 in vaginal secretions, range over doses), 1550 to 17800 ng·h/mL; in series [1] (female, CD-1, mouse, vaginal secretions, BID repeat dose regimen (Days 1-4), read-out: AUC0-24 in vaginal secretions, range over doses), 4320 to 120000 ng·h/mL; in series [1] (female, CD-1, mouse, vaginal secretions, QD regimen, 10-80 mg/kg, read-out: AUC0-24 in vaginal secretions, range over doses), 1320 to 12300 ng·h/mL. Moreover, the AUC(0-t) in the series “clinical” fell in the range of 3 to 8 µM·h. For the same compound, the Kp in series [1] (female, CD-1, mouse, vaginal tissue, oral, repeat-dosing, read-out: accumulation in vaginal tissue relative to plasma) was over 10. For the same compound, the “AUC0-24 Vaginal Tissue” value in series [1] (oral gavage, BID 10/5 mg/kg (Day 1)) turned out to be 24.6 µg·h/g; in series [1] (oral gavage, BID 20/10 mg/kg (Day 1)) it was 72.9 µg·h/g; in series [1] (oral gavage, BID 40/20 mg/kg (Day 1)), 204 µg·h/g; in series [1] (oral gavage, BID 80/40 mg/kg (Day 1)), 337 µg·h/g; in series [1] (oral gavage, BID repeat-dose 10/5 mg/kg (Days 1-4)) it was 24.4 µg·h/g; in series [1] (oral gavage, BID repeat-dose 20/10 mg/kg (Days 1-4)), 71.6 µg·h/g. The “AUC0-24 Vaginal Tissue” value came out at 275 µg·h/g in series [1] (oral gavage, BID repeat-dose 40/20 mg/kg (Days 1-4)); 1798 µg·h/g in series [1] (oral gavage, BID repeat-dose 80/40 mg/kg (Days 1-4)); 26.7 µg·h/g in series [1] (oral gavage, QD 10 mg/kg (Day 1)); 53.6 µg·h/g in series [1] (oral gavage, QD 20 mg/kg (Day 1)); 187 µg·h/g in series [1] (oral gavage, QD 40 mg/kg (Day 1)); 171 µg·h/g in series [1] (oral gavage, QD 80 mg/kg (Day 1)). In addition, in the series “clinical”, the Cmax is 200 to 500 nM.

The values above are taken from US20260000656A1, “ANTIFUNGAL AGENTS WITH ENHANCED ACTIVITY IN ACIDIC PH” (Scynexis, Inc., priority 2017, published 2026).
